In ChEMBL document CHEMBL2074553, “Characterization of bile acid transport mediated by multidrug resistance associated protein 2 and bile salt export pump” (Biochim Biophys Acta, 2001):
Where a name gives a salt, the structure may show the parent alone.

T1: Bile salt export pump (Rattus norvegicus, UniProt O70127)
T1 sequence (O70127 whole entry): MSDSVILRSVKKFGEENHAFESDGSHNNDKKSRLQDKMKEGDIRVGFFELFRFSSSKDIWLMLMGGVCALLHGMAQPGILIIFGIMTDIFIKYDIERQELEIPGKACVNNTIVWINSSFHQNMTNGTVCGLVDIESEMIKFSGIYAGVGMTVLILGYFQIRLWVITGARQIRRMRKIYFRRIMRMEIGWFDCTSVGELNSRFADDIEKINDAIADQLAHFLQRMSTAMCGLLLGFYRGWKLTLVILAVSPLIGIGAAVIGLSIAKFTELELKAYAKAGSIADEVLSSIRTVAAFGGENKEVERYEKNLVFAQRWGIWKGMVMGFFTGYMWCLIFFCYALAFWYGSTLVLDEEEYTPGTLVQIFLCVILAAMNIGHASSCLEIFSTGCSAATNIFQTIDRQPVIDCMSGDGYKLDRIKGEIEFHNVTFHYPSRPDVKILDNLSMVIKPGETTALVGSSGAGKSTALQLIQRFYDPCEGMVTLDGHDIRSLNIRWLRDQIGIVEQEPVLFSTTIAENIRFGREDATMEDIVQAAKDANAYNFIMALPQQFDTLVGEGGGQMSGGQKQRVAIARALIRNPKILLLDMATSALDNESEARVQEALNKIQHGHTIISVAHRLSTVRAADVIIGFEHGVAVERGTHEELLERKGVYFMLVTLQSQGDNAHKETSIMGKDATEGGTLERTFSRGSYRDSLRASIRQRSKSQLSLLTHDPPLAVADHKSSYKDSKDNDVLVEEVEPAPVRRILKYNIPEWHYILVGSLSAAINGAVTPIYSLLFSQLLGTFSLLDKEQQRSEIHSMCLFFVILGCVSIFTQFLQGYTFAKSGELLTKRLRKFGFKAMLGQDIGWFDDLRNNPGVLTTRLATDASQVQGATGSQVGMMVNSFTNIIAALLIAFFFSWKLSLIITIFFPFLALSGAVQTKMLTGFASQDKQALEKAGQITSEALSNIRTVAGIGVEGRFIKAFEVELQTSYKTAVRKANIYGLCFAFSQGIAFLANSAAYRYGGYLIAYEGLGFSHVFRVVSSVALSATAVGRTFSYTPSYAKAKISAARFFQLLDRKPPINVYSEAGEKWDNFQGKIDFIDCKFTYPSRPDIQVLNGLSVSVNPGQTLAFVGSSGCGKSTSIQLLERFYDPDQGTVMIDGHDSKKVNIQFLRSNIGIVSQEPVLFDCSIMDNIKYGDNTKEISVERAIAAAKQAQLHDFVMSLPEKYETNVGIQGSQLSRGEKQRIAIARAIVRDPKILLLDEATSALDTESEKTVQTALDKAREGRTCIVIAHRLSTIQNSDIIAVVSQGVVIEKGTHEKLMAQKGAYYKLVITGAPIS


Experiments:
Bile salt export pump [1] = target: T1, Bile salt export pump; assay: TP_TRANSPORTER: inhibition of Taurocholate uptake (Taurocholate: 1 uM) in membrane vesicles isolated from Bsep-expressing Sf9 cells; assay type: functional, cell membranes, Membrane vesicle
Bile salt export pump [2] = target: T1, Bile salt export pump; assay: TP_TRANSPORTER: inhibition of Taurocholate uptake (Taurocholate: 1 uM) in canalicular membrane vesicles from SD rat; assay type: functional, cell membranes, Sprague-Dawley, Canalicular membrane vesicle
[3] = substrate: [H][C@]12CC[C@]3([H])[C@]([H])(CC[C@]4(C)C([C@H](C)CCC(=O)NCCS(=O)(=O)O)CC[C@@]34[H])[C@@]1(C)CC[C@@H](OS(=O)(=O)O)C2; assay: TP_TRANSPORTER: uptake in membrane vesicles from Mrp2-expressing Sf9 cells; assay type: functional, cell membranes, Membrane vesicle
[4] = substrate: C[C@H](CCC(=O)NCCS(=O)(=O)O)C1CC[C@H]2[C@@H]3[C@H](O)C[C@@H]4C[C@H](OS(=O)(=O)O)CC[C@]4(C)[C@H]3CC[C@]12C; assay: (§1) TP_TRANSPORTER: uptake in canalicular membrane vesicles from SD rat; assay type: functional, cell membranes, Srague-Dawley, Liver, Canalicular membrane vesicle
[5] = substrate: [H][C@]12CC[C@]3([H])[C@]([H])(CC[C@]4(C)C([C@H](C)CCC(=O)NCCS(=O)(=O)O)CC[C@@]34[H])[C@@]1(C)CC[C@@H](OS(=O)(=O)O)C2; assay: as §1; assay type: functional, cell membranes, Srague-Dawley, Liver, Canalicular membrane vesicle

| Molecule | IC50 (Bile salt export pump [1]) [µM] | IC50 (Bile salt export pump [2]) [µM] | Km [3] [µM] | Km [4] [µM] | Km [5] [µM] |
| --- | --- | --- | --- | --- | --- |
| C[C@H](CCC(=O)NCCS(=O)(=O)O)C1CC[C@H]2[C@@H]3CC[C@@H]4C[C@H](OS(=O)(=O)O)CC[C@]4(C)[C@H]3CC[C@]12C (some centres not stated) | 61.9 | 1.2 |  |  |  |
| C[C@H](CCC(=O)NCCS(=O)(=O)O)C1CC[C@H]2[C@@H]3[C@H](O)C[C@@H]4C[C@H](OS(=O)(=O)O)CC[C@]4(C)[C@H]3CC[C@]12C (some centres not stated) [TAUROCHENODEOXYCHOLATE SULFATE] | 67.9 | 4.6 |  |  |  |
| ATP-binding cassette sub-family C member 2 (Rattus norvegicus) (protein) MDKFCNSTFWDLSLLESPEADLPLCFEQTVLVWIPLGFLWLLAPWQLYSVYRSRTKRSSITKFYLAKQVFVVFLLILAAIDLSLALTEDTGQATVPPVRYTNPILYLCTWLLVLAVQHSRQWCVRKNSWFLSLFWILSVLCGVFQFQTLIRALLKDSKSNMAYSYLFFVSYGFQIVLLILTAFSGPSDSTQTPSVTASFLSSITFSWYDRTVLKGYKHPLTLEDVWDIDEGFKTRSVTSKFEAAMTKDLQKARQAFQRRLQKSQRKPEATLHGLNKKQSQSQDVLVLEEAKKKSEKTTKDYPKSWLIKSLFKTFHVVILKSFILKLIHDLLVFLNPQLLKLLIGFVKSSNSYVWFGYICAILMFAVTLIQSFCLQSYFQHCFVLGMCVRTTVMSSIYKKALTLSNLARKQYTIGETVNLMSVDSQKLMDATNYMQLVWSSVIQITLSIFFLWRELGPSILAGVGVMVLLIPVNGVLATKIRNIQVQNMKNKDKRLKIMNEILSGIKILKYFAWEPSFQEQVQGIRKKELKNLLRFGQLQSLLIFILQITPILVSVVTFSVYVLVDSANVLNAEKAFTSITLFNILRFPLSMLPMVTSSILQASVSVDRLERYLGGDDLDTSAIRRVSNFDKAVKFSEASFTWDPDLEATIQDVNLDIKPGQLVAVVGTVGSGKSSLVSAMLGEMENVHGHITIQGSTAYVPQQSWIQNGTIKDNILFGSEYNEKKYQQVLKACALLPDLEILPGGDMAEIGEKGINLSGGQKQRVSLARAAYQDADIYILDDPLSAVDAHVGKHIFNKVVGPNGLLAGKTRIFVTHGIHFLPQVDEIVVLGKGTILEKGSYRDLLDKKGVFARNWKTFMKHSGPEGEATVNNDSEAEDDDDGLIPTMEEIPEDAASLAMRRENSLRRTLSRSSRSSSRRGKSLKNSLKIKNVNVLKEKEKEVEGQKLIKKEFVETGKVKFSIYLKYLQAVGWWSILFIILFYGLNNVAFIGSNLWLSAWTSDSDNLNGTNNSSSHRDMRIGVFGALGLAQGICLLISTLWSIYACRNASKALHGQLLTNILRAPMRFFDTTPTGRIVNRFSGDISTVDDLLPQTLRSWMMCFFGIAGTLVMICMATPVFAIIIIPLSILYISVQVFYVATSRQLRRLDSVTKSPIYSHFSETVTGLPIIRAFEHQQRFLAWNEKQIDINQKCVFSWITSNRWLAIRLELVGNLVVFCSALLLVIYRKTLTGDVVGFVLSNALNITQTLNWLVRMTSEAETNIVAVERISEYINVENEAPWVTDKRPPADWPRHGEIQFNNYQVRYRPELDLVLKGITCNIKSGEKVGVVGRTGAGKSSLTNCLFRILESAGGQIIIDGIDVASIGLHDLRERLTIIPQDPILFSGSLRMNLDPFNKYSDEEVWRALELAHLRSFVSGLQLGLLSEVTEGGDNLSIGQRQLLCLGRAVLRKSKILVLDEATAAVDLETDSLIQTTIRKEFSQCTVITIAHRLHTIMDSDKIMVLDNGKIVEYGSPEELLSNRGSFYLMAKEAGIENVNHTEL |  |  | 3.9 | 8.8 | 1.5 |
